{
  "source": "patent US11883517B2",
  "about": "“External dermal composition and method for beautifying skin” (National Tsing Hua University, priority 2021, dated 2024)",
  "system": "EpiDerm™ SIT (EPI-200)",
  "assay": "Skin irritation test, OECD 439",
  "details": "test group 50 μM, positive control 5% solution, average of 3 repeats",
  "experimental": "In the present evaluation, the EpiDerm™ SIT (EPI-200) was used for skin irritation tests following the OECD 439 test guidelines.\nIn the skin irritation test, the double nitrosyl-iron complex at a concentration of 50 μM was used as the test group, Dulbecco's Phosphate-Buffered Saline (DPBS) was used as the negative control group, and 5% of sodium dodecyl sulfate (SDS) solution was used as a positive control group. The test was repeated 3 times, and the average value was used for evaluation.",
  "data": [
    {"smiles": "CCCCCCCCCCCCOS(=O)(=O)[O-].[Na+]", "note": "[sodium dodecyl sulfate (SDS), sodium dodecyl sulfate]", "values": [
      {"measurement": "tissue survival rate", "result": 15.11, "unit": "%"}
    ]}
  ]
}
